# In patent US20240226065A1, “USE OF RAGE INHIBITORS TO TREAT CANCER-RELATED COGNITIVE DECLINE” (Georgetown University, priority 2021, published 2024):
# Test system: APOE4 mice
# Assay: Barnes maze (spatial learning and memory) after doxorubicin treatment in APOE4 mice
# Format: in vivo, mouse
# Details: female APOE4 mice
# Protocol: A study was conducted to evaluate the effects of RAGE inhibition on preventing CRCD. The study was performed using a mouse model of C57BL/6 J mice having the human APOE4 allele in the mouse APOE gene locus.
# In the study, 24 female APOE mice were divided evenly into three treatment groups: Group 1, which received a vehicle control; Group 2, which received doxorubicin, a chemotherapy medication used to treat a variety of cancers that include breast cancer, bladder cancer, Kaposi's sarcoma, lymphoma, and acute lymphocytic leukemia; and Group 3, which received doxorubicin and FPS-ZM1, RAGE antagonist. Groups 2 and 3 were administered the doxorubicin as two doses of 5 mg/kg, separated by one week. Group 3 was administered 2 mg/kg of FPS-ZMI twice per week by intraperitoneal injection starting one week before the first administration of doxorubicin and continuing throughout the study.
# Four weeks after doxorubicin treatment (or the vehicle control) was completed, mice were analyzed for hippocampal based memory via the Barnes maze (San Diego Instruments Inc., San Diego, CA). […] The apparatus was captured by overhead video and assessed using ANY-maze™ software. […]
# The time to identify the correct (escape) hole on the final day is compared between groups. Primary latency, defined as the time for the mouse to make a first nose poke into the escape hole, was assessed. […]
Structure (SMILES),"primary latency (latency to identify the escape hole) (Group 3: doxorubicin two doses of 5 mg/kg plus FPS-ZM1 2 mg/kg intraperitoneal twice per week from one week before doxorubicin, training day 4, p=0.12 vs Group 2) [s]","primary latency (time to first nose poke into the escape hole) (Group 2: doxorubicin two doses of 5 mg/kg one week apart, Barnes maze training day 4, four weeks after doxorubicin, Group 1 control 24.6 seconds) [s]"
O=C(c1ccc(Cl)cc1)N(Cc1ccccc1)C1CCCCC1 [FPS-ZMI],28.0,–
COc1cccc2c1C(=O)c1c(O)c3c(c(O)c1C2=O)C[C@@](O)(C(=O)CO)C[C@@H]3O[C@H]1C[C@H](N)[C@H](O)[C@H](C)O1 [doxorubicin],–,58.2
